Experimental data: patent publication US7332523B2, “TNP-470 polymer conjugates and use thereof” (Children's Medical Center Corporation, priority 2002, dated 2008)

Experiments:
[1] = Early mouse development (body weight of newborn mice); details: injected into 7 and 17 day-old BALB/c mice
[2] = at doses where antitumor activity has been seen; cited from earlier work
A2058 human melanoma = experiment: Antitumor activity in SCID mice bearing s.c. A2058 human melanoma; format: in vivo
Description: Each group consisted of 5 mice.

chick aortic ring = experiment: Chick aortic ring endothelial sprouting assay; format: cell-based
Experimental: Aortic arches were dissected from day-14 chick embryos, cut into cross-sectional fragments, and implanted in vitro in Matrigel using a modification of methods previously described (V. Muthukkaruppan, personal communication). When cultured in MCDB-131 medium supplemented with 5% fetal bovine serum, endothelial cells sprouted and vascular channel formation occurred within 24-48 hours.

liver regeneration = experiment: Hepatectomy model (liver regeneration); format: in vivo, C57BL/6J mice
Experimental: Male C57BL/6J mice underwent a partial hepatectomy through a midline incision after general anesthesia with isoflourane^33. Free or conjugated TNP-470 (30 mg/kg) were given s.c. every other day for 8 days beginning on the day of surgery according to the scheme described in FIG. 4a. Alternatively, the doses given were 60 mg/kg the day of surgery and 4 days later or 120 mg/kg once on the day of the partial hepatectomy. The liver was harvested on the 8th day, weighed and analyzed by histology.

[3] = system: murine, human and metastatic tumors; details: mice; mostly 30 mg/kg subcutaneously every other day; cited from earlier work
[4] = cited from earlier work
LLC = experiment: Antitumor activity in C57BL/6J mice bearing s.c. LLC; details: 30 mg/kg q.o.d. (data not shown)
[5] = clinical pharmacokinetics, comparison value in words; cited from earlier work

In the case of `CO[C@@H]1[C@H](OC(=O)NC(=O)CCl)CC[C@]2(CO2)[C@H]1[C@@]1(C)O[C@@H]1CC=C(C)C` [TNP-470, O-(chloracetyl-carbamoyl) fumagillol], the “effect on growth / weight gain in normal development” value [1] is listed as “inhibited growth, by inhibiting weight gain”, the “adverse effects in patients” value [2] is listed as “neurotoxicity (malaise, rare seizures, asthenia, anxiety and dysphoria)” and the “T/C (mean tumor volume treated / untreated control)” value (A2058 human melanoma; 30 mg/kg TNP-equiv.) is listed as 0.34. For the same molecule, the survival (A2058 human melanoma; free or conjugated TNP-470, 30 mg/kg TNP-equiv.) was “increased survival”, the “effect on vascular sprouts” value (chick aortic ring; 50 pg/ml) was “reduced the number and length of vascular sprouts” and the “effect on vascular sprouts” value (chick aortic ring; 100 pg/ml) was “completely prevented outgrowth”. For the same molecule, the “inhibition of liver regeneration” value (liver regeneration; 60 mg/kg every four days (q.4.d.)) was “did not inhibit liver regeneration”, the “inhibition of liver regeneration” value (liver regeneration; single injection of 120 mg/kg on the day of hepatectomy) was “did not inhibit liver regeneration” and the “inhibition of growth of human tumors” value [3] was “up to 100%”. The “inhibition of growth of metastatic tumors” value [3] was “up to 100%”, the “inhibition of growth of murine tumors” value [3] was “up to 91%” and the “body weight in animals” value ([4]; animals receiving TNP-470) was “weight loss or failure to gain weight”. The “toxicity to mice at the higher doses” value ([4]; doses of 60 and 90 mg/kg/q.o.d., mice) was “known to be toxic”, the splenic weight ([4]; two reports) was “decrease in splenic weight” and the weight loss (LLC) was “did”.

For `COc1cccc2c1C(=O)c1c(O)c3c(c(O)c1C2=O)C[C@@](O)(C(=O)CO)C[C@@H]3O[C@H]1C[C@H](N)[C@H](O)[C@H](C)O1` [doxorubicin], the t1/2α [5] is given as “few minutes”.
